Laboratory results published in PMC5454376, “Molecular mechanism of Gαi activation by non-GPCR proteins with a Gα-Binding and Activating motif” (Nature Communications, 2017).
Where a SMILES comes first, the peptide text is derived from it. The star is where a group is joined. 6FAM = O=C1OC2(c3ccc(O)cc3Oc3cc(O)ccc32)c2cc(C(=O)*)ccc21

How the values were obtained:
His-Gαi3 K35A = target: T1, His-Gαi3 K35A (Homo sapiens, UniProt P08754, K35A); assay: Fluorescence polarization peptide binding, Gαi3 K35A; settings: peptide 0.025 μM, pH 7.4, room temperature, mean±s.e.m., n=3–7, Fig. 4d, read-out: Kd ± SEM
T1 construct: Full-length human Gαi3 (UNIPROT entry P08754) cloned in a pET24d(+) plasmid; made in house; host or cells: E. coli BL21 Rosetta
Protocol: (§1) Human Gαi3 was expressed from the same plasmid as described for the NMR studies and purified as an uncleaved His-tagged protein. […] After sonication (four cycles, with pulses lasting 20 s and with 1 min interval between pulses to prevent heating), lysates were centrifuged at 12,000g for 20 min at 4 °C. […] The buffer was exchanged for 20 mM Tris-HCl, pH 7.4, 20 mM NaCl, 1 mM MgCl2, 1 mM DTT, 10 μM GDP and 5% (v/v) glycerol using a HiTrap Desalting column (GE Healthcare). Protein samples were stored at −80 °C.
(§2) Fluorescence polarization-based peptide-binding assays
(§3) Briefly, following chain elongation 5,6-carboxyfluorescein was activated with HATU and coupled to the resin-bound peptide at 65 °C for 1 h to yield the fluorescein-labelled peptides. […] Fluorescence polarization measurements were carried out in 384-well plates (Black OptiPlate-384F, Perkin Elmer). […] Fluorescence polarization (excitation 485±10 nm/emission 528±10 nm) was measured every 2 min for 30 min at room temperature in a Biotek H1 synergy plate reader to ensure that the signals were stable in time. Fluorescence polarization at different times was averaged, normalized and fitted to a one site binding hyperbola to determine the equilibrium dissociation constant (Kd). For mutants not reaching binding saturation, the maximal binding of Gαi3 WT measured in the same experimental set was considered 100% binding for normalization.

His-Gαi3 W211A = target: T2, His-Gαi3 W211A (Homo sapiens, UniProt P08754, W211A); assay: Fluorescence polarization peptide binding, Gαi3 W211A; settings: peptide 0.025 μM, pH 7.4, room temperature, mean±s.e.m., n=3–7, Fig. 4d, read-out: Kd ± SEM
T2 construct: Full-length human Gαi3 (UNIPROT entry P08754) cloned in a pET24d(+) plasmid; made in house; host or cells: E. coli BL21 Rosetta
Protocol: as §1, §2, §3

His-Gαi3 F215A = target: T3, His-Gαi3 F215A (Homo sapiens, UniProt P08754, F215A); assay: Fluorescence polarization peptide binding, Gαi3 F215A; settings: peptide 0.025 μM, pH 7.4, room temperature, mean±s.e.m., n=3–7, Fig. 4d, read-out: Kd ± SEM
T3 construct: Full-length human Gαi3 (UNIPROT entry P08754) cloned in a pET24d(+) plasmid; made in house; host or cells: E. coli BL21 Rosetta
Protocol: as §1, §2, §3

His-Gαi3 L249V = target: T4, His-Gαi3 L249V (Homo sapiens, UniProt P08754, L249V); assay: Fluorescence polarization peptide binding, Gαi3 L249V; settings: peptide 0.025 μM, pH 7.4, room temperature, mean±s.e.m., n=3–7, Fig. 4d, read-out: Kd ± SEM
T4 construct: Full-length human Gαi3 (UNIPROT entry P08754) cloned in a pET24d(+) plasmid; made in house; host or cells: E. coli BL21 Rosetta
Protocol: as §1, §2, §3

His-Gαi3 N256E = target: T5, His-Gαi3 N256E (Homo sapiens, UniProt P08754, N256E); assay: Fluorescence polarization peptide binding, Gαi3 N256E; settings: peptide 0.025 μM, pH 7.4, room temperature, mean±s.e.m., n=3–7, Fig. 4d, read-out: Kd ± SEM
T5 construct: Full-length human Gαi3 (UNIPROT entry P08754) cloned in a pET24d(+) plasmid; made in house; host or cells: E. coli BL21 Rosetta
Protocol: as §1, §2, §3

ΔHis-Gαi3 = target: T6, ΔHis-Gαi3 (Homo sapiens, UniProt P08754); assay: Fluorescence polarization peptide binding, ΔHis-Gαi3; settings: room temperature, n=3, Supplementary Fig. 5
T6 construct: Full-length human Gαi3 (UNIPROT entry P08754) cloned in a pET24d(+) plasmid; His-tag (N, cleaved yes); made in house; host or cells: E. coli BL21 Rosetta
Protocol: Briefly, following chain elongation 5,6-carboxyfluorescein was activated with HATU and coupled to the resin-bound peptide at 65 °C for 1 h to yield the fluorescein-labelled peptides. The remaining steps were carried out as described above. Fluorescence polarization measurements were carried out in 384-well plates (Black OptiPlate-384F, Perkin Elmer). […] Fluorescence polarization (excitation 485±10 nm/emission 528±10 nm) was measured every 2 min for 30 min at room temperature in a Biotek H1 synergy plate reader to ensure that the signals were stable in time. Fluorescence polarization at different times was averaged, normalized and fitted to a one site binding hyperbola to determine the equilibrium dissociation constant (Kd). For mutants not reaching binding saturation, the maximal binding of Gαi3 WT measured in the same experimental set was considered 100% binding for normalization.

His-Gαi3 W211A and F215A = assay: Gβγ-binding pull-down assay; set-up: species or system human; settings: bovine Gβ1γ1 100 nM, Gαi3 50 nM, 4 h, 4 °C, 30 μM GDP
Protocol: Gβγ was purified from bovine retinas, which are primarily composed of Gβ1γ1 by purification of holotransducin from rod outer segment (ROS) membranes isolated from dark-adapted bovine followed by separation of the Gβ1γ1 complex from the α-subunit of transducin on a Hitrap Blue-sepharose column (GE healthcare), and further purification by anion exchange chromatography using a Hitrap-Q column.
For binding assays, Gβ1γ1 (100 nM final) was incubated in the absence or presence of human His-tagged Gαi3 WT or mutants (50 nM final) in 250 μl of binding buffer (50 mM Tris-HCl, pH 7.4, 100 mM NaCl, 0.4% (v:v) NP-40, 5 mM MgCl2, 10 mM imidazole, 0.1 mg ml^−1 BSA, 1 mM DTT and 30 μM GDP) for 4 h at 4 °C with rotation. A volume of 25 μl of BSA-blocked HisPur cobalt resin (Pierce) were added to each tube and the incubation continued for 90 min. Beads were washed four times with 1 ml of binding buffer and resin-bound proteins eluted by adding Laemmli sample buffer supplemented with 100 mM EDTA and boiling for 5 min. […]

Gαi3-GDP = assay: NMR perturbation of Gαi3-GDP backbone amide signals; format: binding, human; settings: fivefold molar excess of peptide, 30 °C, pH 7.0
Protocol: Full-length human Gαi3 (UNIPROT entry P08754) cloned in a pET24d(+) plasmid (a generous gift from Ichio Shimada, University of Tokyo) was used to purify the protein used in NMR experiments. For this, protein expression was induced in BL21 Rosetta (Life Technologies) cell cultures with 1 mM IPTG for 16 h at 23 °C in a modified M9 minimal medium containing 1 g l^−1 15N-NH4Cl, 2 g l^−1 2H-^13C-glucose and 1 g l^−1 of ^2H-^13C-^15N Celtone base powder in ^2H2O with 30 mg l^−1 kanamycin and 34 mg l^−1 chloramphenicol. The pelleted cells were lysed by sonication in 50 mM Tris, 200 mM NaCl, 100 mM KCl and 1 mM DTT at pH 8.0, and the supernatant was loaded on a Ni^2+-loaded His-Trap FF column. […]
All NMR data were measured on a Bruker Avance III 800 MHz (18.8 T) spectrometer equipped with a cryogenically cooled triple resonance z-gradient probe, processed with Topspin (Bruker) and analysed with Sparky. […] Gαi3 spectra were recorded at 30 °C on ^2H-^13C-^15N–Gαi3 samples with a threefold molar excess of GDP in 10 mM HEPES (pH 7.0) with 10 mM MgCl2, 5 mm DTT, 0.01% NaN3 and 5% ^2H2O. […] The assignment of Gαi3 resonances in the presence of a fivefold molar excess of GIV fragment 1,671–1,696 was achieved from the joint analysis of an HNCO and ^1H–^15N TROSY spectra recorded along a titration (at molar ratios 1:0, 1:0.2,1:0.5, 1:1, 1:2 and 1:5). […]

[1] = tested on: His-Gαi3 mutants in complex with Gβ1γ1; assay: Steady-state GTPase assay with rhodopsin; format: biochemical, human; settings: rhodopsin 20 nM, Gαi3/Gβ1γ1 100/200 nM, 30 °C
Protocol: Steady-state GTPase assays with rhodopsin
ROS membranes washed with urea were prepared as described earlier and used as the source of rhodopsin[67]. Human His-tagged Gαi3 WT and mutants (20–25 μM) were incubated overnight at 4 °C with twofold excess Gβ1γ1 in 20 mM Tris-HCl, pH 7.4, 20 mM NaCl, 1 mM MgCl2, 1 mM DTT, 10 μM GDP and 5% (v/v) glycerol. Bovine rhodopsin was freshly solubilized from urea-washed ROS membranes in assay buffer (20 mM HEPES, pH 7.5, 100 mM NaCl, 5 mM MgCl2, 1 mM DTT and 0.01% (w:v) dodecylmaltoside) for each experiment. Gαi3/Gβ1γ1 (100/200 nM final) and rhodopsin (20 nM final) were incubated in ice for 30 min under ambient light in assay buffer. Reactions were initiated at 30 °C by adding an equal volume of assay buffer containing 1 μM [γ-^32P]GTP (∼50 c.p.m. fmol^−1) and stopped in duplicates by mixing 25 μl of the reaction with 975 μl of ice-cold 5% (w/v) activated charcoal in 20 mM H3PO4, pH 3. Samples were then centrifuged for 10 min at 10,000g, and 500 μl of the resultant supernatant were scintillation-counted to quantify the amount of [^32P]Pi released. Background [^32P]Pi detected at 15 min in the absence of G protein was subtracted from each reaction (<5% of the counts detected in the presence of G proteins). Results were expressed as per cent of the activity of Gi3 WT without rhodopsin.

T4 sequence (P08754 whole entry L249V): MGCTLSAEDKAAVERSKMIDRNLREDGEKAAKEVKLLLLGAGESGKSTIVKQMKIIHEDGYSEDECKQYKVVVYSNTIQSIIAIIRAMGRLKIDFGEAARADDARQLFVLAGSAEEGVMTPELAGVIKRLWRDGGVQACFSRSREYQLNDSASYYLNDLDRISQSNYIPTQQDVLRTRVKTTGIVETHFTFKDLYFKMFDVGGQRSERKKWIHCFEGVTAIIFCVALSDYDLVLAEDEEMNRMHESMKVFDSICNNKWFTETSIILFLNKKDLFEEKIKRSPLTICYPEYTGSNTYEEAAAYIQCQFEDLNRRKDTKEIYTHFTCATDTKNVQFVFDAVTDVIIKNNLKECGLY
T5 sequence (P08754 whole entry N256E): as the sequence (P08754 whole entry L249V) above, with V249L, N256E counted along it
T2 sequence (P08754 whole entry W211A): as the sequence (P08754 whole entry L249V) above, with W211A, V249L counted along it
T3 sequence (P08754 whole entry F215A): as the sequence (P08754 whole entry L249V) above, with F215A, V249L counted along it
T1 sequence (P08754 whole entry K35A): as the sequence (P08754 whole entry L249V) above, with K35A, V249L counted along it
T6 sequence (P08754 whole entry, stated change not applied): as the sequence (P08754 whole entry L249V) above, with V249L counted along it

Compound: CC[C@H](C)[C@H](NC(=O)[C@H](CCC(N)=O)NC(=O)[C@@H](NC(=O)[C@H](CO)NC(=O)[C@@H](NC(=O)[C@H](CC(C)C)NC(=O)[C@H](CCCCN)NC(=O)[C@H](CC(N)=O)NC(=O)[C@H](CO)NC(=O)[C@H](CCC(=O)O)NC(=O)[C@H](CCC(=O)O)NC(=O)[C@H](CC(C)C)NC(=O)[C@H](Cc1ccccc1)NC(=O)[C@H](CCC(N)=O)NC(=O)[C@H](CCC(N)=O)NC(=O)[C@H](CC(C)C)NC(=O)[C@@H](NC(=O)[C@@H](NC(=O)[C@@H](NC(=O)[C@H](CCC(=O)O)NC(=O)[C@H](CO)NC(=O)CNC(=O)[C@@H]1CCCN1C(=O)[C@H](CO)NC(=O)CNC(=O)[C@@H](NC(=O)[C@H](CCCCN)NC(=O)c1ccc2c(c1)C1(OC2=O)c2ccc(O)cc2Oc2cc(O)ccc21)[C@@H](C)O)C(C)C)C(C)C)[C@@H](C)O)[C@@H](C)O)C(C)C)C(=O)N[C@@H](CCCCN)C(=O)N[C@@H](CO)C(=O)N[C@@H](CO)C(=O)N[C@@H](CO)C(N)=O [GIV]
- Kd (His-Gαi3 K35A): > 10 µM
- Kd (His-Gαi3 W211A): > 20 µM
- Kd (His-Gαi3 F215A): > 10 µM
- Kd (His-Gαi3 L249V): 1.37 ± 0.199 µM
- Kd (His-Gαi3 N256E): > 20 µM
- affinity for ΔHis-Gαi3 compared with His-Gαi3 (ΔHis-Gαi3): the same affinity

Compound: CC[C@H](C)[C@H](NC(=O)[C@H](CC(C)C)NC(=O)[C@H](CCC(=O)O)NC(=O)[C@H](Cc1ccccc1)NC(=O)[C@H](Cc1ccccc1)NC(=O)[C@H](CCC(=O)O)NC(=O)[C@H](CCC(=O)O)NC(=O)[C@H](C)NC(=O)[C@H](CCC(=O)O)NC(=O)[C@H](CC(=O)O)NC(=O)c1ccc2c(c1)C1(OC2=O)c2ccc(O)cc2Oc2cc(O)ccc21)C(=O)N[C@@H](CO)C(=O)N[C@@H](CCCCN)C(=O)N[C@@H](C)C(=O)N[C@@H](CCC(N)=O)C(=O)N[C@@H](CO)C(=O)N[C@@H](CC(N)=O)C(=O)N[C@@H](CCCNC(=N)N)C(=O)N[C@@H](C)C(=O)N[C@@H](CC(=O)O)C(=O)N[C@@H](CC(=O)O)C(=O)N[C@@H](CCC(N)=O)C(=O)N[C@@H](CCCNC(=N)N)C(=O)NCC(=O)N[C@@H](CC(C)C)C(=O)N[C@@H](CC(C)C)C(=O)N[C@@H](CCCNC(=N)N)C(=O)N[C@@H](CCCCN)C(=O)N[C@@H](CCC(=O)O)C(=O)N[C@@H](CC(=O)O)C(=O)N[C@@H](CC(C)C)C(=O)N[C@H](C(=O)N[C@@H](CC(C)C)C(=O)N1CCC[C@H]1C(=O)N[C@@H](CCC(=O)O)C(=O)N[C@@H](Cc1ccccc1)C(=O)N[C@@H](CC(C)C)C(=O)N[C@@H](CCCNC(=N)N)C(N)=O)C(C)C [RGS12, reference compound] (6FAM-DEAEEFFELISKAQSNRADDQRGLLRKEDLVLPEFLR-NH2)
- Kd (His-Gαi3 L249V): 0.084 ± 0.009 µM

Compound: Gβγ: retinal Gβγ (Gβ1γ1) purified from bovine retinas
- binding to Gαi3 W211A and F215A (His-Gαi3 W211A and F215A): abolished

Compound: KTGSPGSEVVTLQQFLEESNKLTSVQ [GIVpept, peptide corresponding to GIV amino acids 1,671–1,696]
- overall decrease in signal intensities (Gαi3-GDP): ~15%

Compound: rhodopsin: bovine rhodopsin solubilized from urea-washed ROS membranes
- activation of Gαi3 mutants ([1]; K35A, L249H, S252D and N256E): activated efficiently
- activation of Gαi3 ΔC9 ([1]; ΔC9): completely abolished
